“Also recorded” adds a separate entry of the source.
Experiments:
[1] = system: breast cancer cell line MCF-7; experiment: Colony (clonogenic) assay, serum-free, MCF-7; format: cell-based; conditions: 14 days, concentration giving 50% inhibition of cell growth
Experimental: (§1) Specifically, the following assay procedure was employed to test certain exemplary compounds of the invention in the breast cancer cell line known in the art as MCF-7 and in the prostrate cancer cell line known in the art as LNCaP.
(§2) Set 4 mL cultures in 60 mm petri dishes
(medium for MCF-7—DMEN with L-glutamine & without glucose)
(§3) Seeding density: LNCaP serum-free 1200 cells/dish; MCF-7 serum-free 1400 cells/dish
(§4) Add compound immediately after setting cultures and then change the media and re-feed with compound at day 2 (or day 3 for assays set on Fridays).
(§5) Incubated for 14 days (serum free lines)
(§6) 2. fix with 10% formal saline for ˜30 mins
(§7) 3. remove formal saline and wash with 2-3 mLs PBS
(§8) 4. stain with 1% methylene blue in PBS, leave this on for ˜1 hr
(§9) 5. remove stain and wash off in tap water
(§10) 6. dry overnight and count the colonies
(§11) The results obtained in these assays are shown in Table 1, expressed in EC50 numbers, where EC50 is the concentration (expressed as nanomolar) of the compound that results in 50% inhibition of the growth of the cells.

[2] = system: prostate cancer cell line LNCaP; experiment: Colony (clonogenic) assay, serum-free, LNCaP; format: cell-based; conditions: 14 days, concentration giving 50% inhibition of cell growth; for EC50: Homo sapiens, LNCaP, 336 h
Experimental: as §1, §2
(medium for LNCaP—[…] with ITS & linoleic acid)
as §3, §4, §5, §6, §7, §8, §9, §10, §11

Compound | EC50 ([1]; Homo sapiens, MCF7, 336 h) [nM] | EC50 [2] [nM] | EC50 for Breast Cancer Cell Line (MCF-7) [1] | EC50 [1] [nM] | EC50 for Prostate Cancer Cell Line (LNCaP) [2]
CCCCCCN1C(=O)CC(C)(C)c2cc(C(=O)C=Cc3ccc(C(=O)O)cc3)ccc21 [Compound 8a, 4-[3-(1-Hexyl-4,4-dimethyl-2-oxo-1,2,3,4-tetrahydro-quinolin-6-yl)-3-oxo-propenyl]-benzoic acid] | 9 | 90 | – | – | –
4-[3-(1-Phenylethyl-4,4-dimethyl-2-oxo-1,2,3,4-tetrahydro-quinolin-6-yl)-3-oxo-propenyl]-benzoic acid [Compound 8e] | – | – | – | 9 | Not Active
CN1C(=O)CC(C)(C)c2cc(C(=O)C=Cc3ccc(C(=O)O)cc3)ccc21 [Compound 8f, 4-[3-(1-Methyl-4,4-dimethyl-2-oxo-1,2,3,4-tetrahydro-quinolin-6-yl)-3-oxo-propenyl]-benzoic acid] | – | – | inactive; also recorded: Not Active | – | inactive; also recorded: Not Active

Second part, led by results:

EC50 ([1]; Homo sapiens, MCF7, 336 h) [nM] | EC50 [2] [nM] | EC50 for Breast Cancer Cell Line (MCF-7) [1] | Compound | EC50 [1] [nM] | EC50 for Prostate Cancer Cell Line (LNCaP) [2]
9 | 155 | – | CCCCCCCN1C(=O)CC(C)(C)c2cc(C(=O)C=Cc3ccc(C(=O)O)cc3)ccc21 [Compound 8b, 4-[3-(1-Heptyl-4,4-dimethyl-2-oxo-1,2,3,4-tetrahydro-quinolin-6-yl)-3-oxo-propenyl]-benzoic acid] | – | –
3 | 155 | – | CCCCCCCCCN1C(=O)CC(C)(C)c2cc(C(=O)C=Cc3ccc(C(=O)O)cc3)ccc21 [Compound 8d, 4-[3-(1-Nonyl-4,4-dimethyl-2-oxo-1,2,3,4-tetrahydro-quinolin-6-yl)-3-oxo-propenyl]-benzoic acid] | – | –
30 | 52 | – | CCCCCCCCN1C(=O)CC(C)(C)c2cc(C(=O)C=Cc3ccc(C(=O)O)cc3)ccc21 [Compound 8c, 4-[3-(1-Octyl-4,4-dimethyl-2-oxo-1,2,3,4-tetrahydro-quinolin-6-yl)-3-oxo-propenyl]-benzoic acid] | – | –

— patent US6683092B1, “[3-(C5-14ALKYL-2-OXO-1,2,3,4-TETRAHYDRO-QUINOLIN-6-YL)-3-OXO-PROPENYL]-PHENYL AND [3-(C5-14ALKYL-2-OXO-1,2,3,4- TETRAHYDRO-QUINOLIN-6-YL)-3-OXO-PROPENYL]-HETEROARYL DERIVATIVES HAVING ANTI-TUMOR ACTIVITY” (Allergan, Inc., priority 2003, dated 2004)
